Results published in patent US7223787B2, “Prenylation inhibitors reduce host cell permissiveness to viral replication” (priority 2003, dated 2007).

Assays:
HCV replicon RNA = conditions: hepatoma cells, recent studies (ref. 23); cited from earlier work
[1] = system: HCV replication complex (NS5A); assay: Immunocytochemical NS5A staining of the HCV replication complex; assay type: cell-based, hepatitis C virus
Source text: HCV Replication Complex Requires Protein Geranylgeranylation. Among other functions, geranylgeranylated proteins mediate the interaction of membranes with cytoskeletal proteins (8). Such interactions are likely to be required for the formation of the ER-associated HCV replication complex, which contains the viral RNA as well as the nonstructural viral proteins (1, 2). […] To test whether lovastatin affects the replication complex, we stained cells with an antibody to NS5A and an FITC-labeled second antibody. In the absence of lovastatin treatment, much of the NS5A was localized in a punctate pattern consistent with the ER localization of the HCV replication complex.

H-Ras = assay: Prenylation of wild-type H-Ras (blot); assay type: cell-based; conditions: 10 μM
Source text: (§1) In contrast, FPTI-III had no effect on viral RNA levels. To confirm the specificity of GGTI-286 and FPTI-III action, we evaluated the effect of each compound on the prenylation of wild-type H-Ras, which is normally farnesylated, and a mutant H-Ras(S189L) in which the carboxyl-terminal amino acid has been changed to leucine, making it a substrate for GGTase 1 (21). […] Thus, the inhibitory activity of GGTI-286 on HCV RNA replication must be due to its action against GGTase I, and not farnesyl transferase.

Rap1a = assay: SDS-PAGE and blot of Rap1a prenylation in Huh7-K2040 cells; assay type: cell-based, human
HCV RNA replication [2] = assay: HCV RNA replicon levels in Huh7-K2040 cells (subgenomic replicon); conditions: for viral RNA levels (effect in words): 24-hour culture period; for rescue of HCV RNA levels from the suppressive action of lovastatin: lovastatin-treated Huh7-K2040 cells supplemented with the metabolite, 24-hour culture
H-Ras(S189L) = assay: Prenylation of mutant H-Ras(S189L), substrate for GGTase I (blot); assay type: cell-based; conditions: 10 μM
Source text: as §1

Huh7-K2040 cells [3] = conditions: for cellular DNA synthesis / cellular mRNA synthesis / levels: 24 hours
Source text: (§2) We therefore examined the influence of lovastatin upon the synthesis of DNA, mRNA, and protein in Huh7-K2040 cells.

West Nile virus [4] = assay: WN virus replication in a mouse model; assay type: in vivo
Source text: Virulence in mice. Mice are housed in an environmentally controlled room under biosafety level 3 conditions and are given food and water ad libitum. Female outbred CD-1 mice (Charles River Laboratories, Wilmington, Mass.) are obtained at 5 weeks of age and acclimatized for 1 week. All mice are 6 weeks of age at the start of the experiment. Eight mice per group are inoculated with diluent alone or with 10^2 PFU of virus subcutaneously (s.c.) in the left rear footpad. Diluent is PBS (endotoxin-free) supplemented with 1% FBS. Mice are evaluated clinically and weighed daily for 2 weeks, then monitored daily and weighed thrice weekly for 2 more weeks. Observed clinical signs include ruffled fur, paresis, hindleg paralysis, and tremors. Morbidity is defined as exhibition of greater than 10% weight loss or clinical signs for 2 or more days. Mice are euthanized if they become moribund.

Huh7-K2040 cells [5] = assay: Cell viability of treated cultures; conditions: cultures treated over 7 days, at the concentrations used
Source text: as §2

West Nile virus [6] = assay: WN virus replication in mammalian cell types; assay type: cell-based; conditions: several mammalian cell types
Description: Cells and virus. Vero (ATCC CCL-81) cells are grown in minimal essential medium (MEM) supplemented with 10% fetal bovine serum (FBS). BHK-21/WI2 (BHK-21) and Aedes albopictus C6/36 (C6/36) (ATCC CRL-1660) cells are grown in Dulbecco's modification of MEM with 10% FBS and 0.1 mM nonessential amino acids. Antibiotics are added to all media at 10 U/ml of penicillin and 10 μg/ml of streptomycin. Cells are maintained in 5% CO2 at 37° C. (Vero and BHK-21) or 28° C. (C6/36). West Nile viruses are obtained from the World Arbovirus Reference Collection and stocks are grown and plaque titrated in Vero cells. Prenylation inhibitors examined over a series of 10-fold dilutions.
IFA. Indirect immunofluorescence assays (IFA) are used to detect viral protein expression in WNV RNA-transfected BHK-21 cells. After electroporation, approximately 10^5 transfected cells are spotted onto 10-mm glass coverslips. Cells on coverslips are analyzed by IFA at various times posttransfection for viral protein synthesis. […] The coverslips are washed with PBS, mounted to a slide using fluorescent mounting medium (KPL), and observed under a fluorescence microscope equipped with a video documentation system (Zeiss, Thornwood, N.Y.).
Specific infectivity assay. […] Plaques are counted after incubation of the plates for another 12 to 24 h, and the specific infectivity is calculated as the number of PFU per microgram of RNA. […]

HCV RNA replication [7] = assay: HCV RNA replicon levels in Huh7-HP cells (subgenomic replicon)
HCV RNA replication [8] = assay: HCV RNA replicon levels in Huh7-C5B3 cells (genome-length replicon)

## C[C@H](CCCC(C)(C)O)[C@H]1CC[C@H]2[C@@H]3CC=C4C[C@@H](O)CC[C@]4(C)[C@H]3CC[C@]12C [25-hydroxycholesterol]
HCV replicon RNA
  level of HCV replicon RNA: reduce the level of HCV replicon RNA

## COC(=O)[C@H](CC(C)C)NC(=O)c1ccc(NC[C@@H](N)CS)cc1-c1ccccc1 [GGTI-286]
[1]
  redistribution of HCV NS5A protein from punctate to diffuse pattern: produced a redistribution
H-Ras
  prenylation (farnesylation) of wild-type H-Ras: inhibiting farnesylation of H-Ras
Rap1a; 10 μM
  prenylation of endogenous Rap1a: clear-cut inhibitory effects
HCV RNA replication [2]; Huh7-K2040 cells, increasing concentrations of inhibitor
  level of HCV RNA: dose-dependent decrease
H-Ras(S189L)
  prenylation (geranylgeranylation) of H-Ras(S189L): inhibiting farnesylation of H-Ras as well as geranylgeranylation of H-Ras(S189L)

## C[C@@]1(CO)[C@H](O)CC[C@@]2(C)[C@H]1CC[C@H]1C[C@@H]3C[C@@]12CC[C@]3(O)CO [aphidicolin]
Huh7-K2040 cells [3]
  global rate of cellular protein synthesis: moderately suppressed
  cellular DNA synthesis: blocked DNA synthesis
  cellular mRNA synthesis / levels: did not affect
HCV RNA replication [2]; Huh7-K2040 cells
  viral RNA levels (effect in words): did not affect

## CC(C)=CCCC(C)=CCCC(C)=CCO [farnesol]
HCV RNA replication [2]
  rescue of HCV RNA levels from the suppressive action of lovastatin: neither farnesol nor oleate, mediated a dose-dependent rescue

## CC(C)=CCC/C(C)=C/CC/C(C)=C/CC/C(C)=C/CO [geranylgeraniol]
[1]; added to lovastatin-treated cells
  prevention of loss of punctate NS5A distribution: prevented the loss of the punctate distribution
Rap1a; added to lovastatin-treated Huh7-K2040 cells
  restoration of Rap1a geranylgeranylation: eliminated the upper band
HCV RNA replication [2]
  rescue of HCV RNA levels from the suppressive action of lovastatin: mediated a dose-dependent rescue

## NC(=O)NO [hydroxyurea]
Huh7-K2040 cells [3]
  global rate of cellular protein synthesis: moderately suppressed
  cellular DNA synthesis: blocked DNA synthesis
  cellular mRNA synthesis / levels: did not affect
HCV RNA replication [2]; Huh7-K2040 cells
  viral RNA levels (effect in words): did not affect

## CC[C@H](C)C(=O)O[C@H]1C[C@@H](C)C=C2C=C[C@H](C)[C@H](CC[C@@H]3C[C@@H](O)CC(=O)O3)[C@H]21 [lovastatin]
[1]; treatment for 48 hours
  punctate NS5A staining pattern: largely disappeared
West Nile virus [4]
  WN virus replication: disrupted
Huh7-K2040 cells [5]
  cell viability: no significant effects
West Nile virus [6]
  WN virus replication: disrupted
Rap1a; Huh7-K2040 cells
  prenylation state of Rap1a: caused the appearance of a slow-migrating form
Huh7-K2040 cells [3]
  global rate of cellular protein synthesis: moderately suppressed
  cellular DNA synthesis: did not significantly affect
  cellular mRNA synthesis / levels: did not significantly affect
HCV RNA replication [2]; Huh7-K2040 cells, after 72 hours
  reduction of HCV RNA levels: more than 95%
HCV RNA replication [2]; Huh7-K2040 cells, after a 24-hour treatment
  reduction of HCV RNA levels: more than 70%
HCV RNA replication [2]; Huh7-K2040 cells, over a 72-hour culture period
  viral protein levels: reduction in viral protein levels
HCV RNA replication [7]
  levels of viral proteins: reduced the levels of viral proteins
HCV RNA replication [8]
  levels of viral proteins: reduced the levels of viral proteins

## CC(O)(CCO)CC(=O)O (centres unmarked) [mevalonate]
HCV RNA replication [2]
  rescue of HCV RNA levels from the suppressive action of lovastatin: dose-dependent rescue
